Columns and labels:
[1] = tested on: smallflower umbrella sedge; assay: Test C flooded paddy test; assay type: in vivo, Cyperus difformis; settings: for Plant response rating, Sedge, Umbrella: 500 g ai/ha, visual rating after 12 to 14 days
[2] = tested on: corn; assay: Test C pre-/postemergence herbicide test; assay type: in vivo, Zea mays
Summary of the method: (§1)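 Pre/post spray; non-phytotoxic solvent + surfactant. Post-timing 1–4 leaves, 2–18 cm. Read-out: visual % control vs untreated, day 12–14, greenhouse.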

[3] = tested on: goosegrass; assay: Test C pre-/postemergence herbicide test; assay type: in vivo, Eleusine indica
Summary of the method: as §1

[4] = tested on: johnsongrass; assay: Test C pre-/postemergence herbicide test; assay type: in vivo, Sorghum halepense
Summary of the method: as §1

[5] = tested on: ducksalad; assay: Test C flooded paddy test; assay type: in vivo, Heteranthera limosa; settings: for Plant response rating, Ducksalad: 500 g ai/ha, visual rating after 12 to 14 days
[6] = tested on: velvetleaf; assay: Test C pre-/postemergence herbicide test; assay type: in vivo, Abutilon theophrasti
Summary of the method: as §1

[7] = tested on: bermudagrass; assay: Test C pre-/postemergence herbicide test; assay type: in vivo, Cynodon dactylon
Summary of the method: as §1

[8] = tested on: soybean; assay: Test C pre-/postemergence herbicide test; assay type: in vivo, Glycine max
Summary of the method: as §1

[9] = tested on: rice; assay: Test C flooded paddy test; assay type: in vivo, Oryza sativa; settings: for Plant response rating, Rice: 500 g ai/ha, visual rating after 12 to 14 days
Summary of the method: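 Plants were grown to the 1- to 4-leaf stage (2–18 cm) and then treated postemergence, or grown to the 2-leaf stage for the flooded paddy test. They were held in a greenhouse for 12 to 14 days and then scored by eye against controls, where 0 is no effect and 100 is complete control.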

[10] = tested on: cocklebur; assay: Test C pre-/postemergence herbicide test; assay type: in vivo, Xanthium strumarium; settings: for Cocklebur plant response rating: Preemergence, 500 g ai/ha
Summary of the method: as §1

[11] = 125 g ai/ha, scale 0 to 100 (0 no effect, 100 complete control)
[12] = 250 g ai/ha, scale of 0 to 100, 0 is no effect, 100 is complete control
[13] = scale 0 to 100 (0 no effect, 100 complete control)
[14] = 62 g ai/ha, preemergence, scale 0 to 100
[15] = 125 g ai/ha, scale 0 (no effect) to 100 (complete control), visual, 12 to 14 days, preemergence
[16] = 250 g ai/ha, scale 0-100, preemergence
[17] = 500 g ai/ha, scale 0 to 100 (0 no effect, 100 complete control), visual, 12 to 14 days, preemergence
[18] = Postemergence, 500 g ai/ha, scale 0 to 100
[19] = Postemergence, 250 g ai/ha, scale 0 to 100, 0 no effect, 100 complete control
[20] = postemergence, 125 g ai/ha, scale 0 to 100
[21] = postemergence, 62 g ai/ha, scale 0 to 100
[22] = 62 g ai/ha, preemergence, scale 0 to 100, 0 no effect, 100 complete control
[23] = Preemergence, 500 g ai/ha, scale 0 to 100, 0 no effect, 100 complete control
[24] = scale 0 to 100, 0 no effect, 100 complete control
[25] = 62 g ai/ha, scale 0 to 100 (0 no effect, 100 complete control)
[26] = 125 g ai/ha, scale of 0 to 100, 0 is no effect, 100 is complete control
[27] = postemergence, 31 g ai/ha, scale 0 to 100

CCn1nc(C(C)(C)C)cc1C(=O)Nc1cccc(OC(F)(F)C(F)F)c1 [Compound 333]
Sedge, Umbrella plant response rating ([1]; 62 g ai/ha, scale 0 to 100): 0 | Sedge, Umbrella plant response rating [1, 11]: 15 | Sedge, Umbrella plant response rating [1, 12]: 30 | Plant response rating, Sedge, Umbrella [1, 13]: 80 | Plant response rating, Corn [2, 14]: 0 | Plant response rating, Corn [2, 15]: 0 | Plant response rating, Corn [2, 16]: 0 | Plant response rating, Corn [2, 17]: 0 | Corn plant response rating [2, 18]: 5 | Plant response rating, Corn [2, 19]: 5 | Plant response rating, Corn [2, 20]: 5 | Plant response rating, Corn [2, 21]: 5 | Plant response rating, Goosegrass [3, 14]: 0 | Plant response rating, Goosegrass [3, 15]: 30 | Plant response rating, Goosegrass [3, 16]: 85 | Plant response rating, Goosegrass [3, 17]: 100 | Goosegrass plant response rating [3, 18]: 15 | Plant response rating, Goosegrass [3, 19]: 10 | Plant response rating, Goosegrass [3, 20]: 10 | Plant response rating, Goosegrass [3, 21]: 5 | Plant response rating, Johnsongrass [4, 14]: 0 | Plant response rating, Johnsongrass [4, 15]: 0 | Plant response rating, Johnsongrass [4, 16]: 5 | Plant response rating, Johnsongrass [4, 17]: 5 | Johnsongrass plant response rating [4, 18]: 0 | Plant response rating, Johnsongrass [4, 19]: 0 | Plant response rating, Johnsongrass [4, 20]: 0 | Plant response rating, Johnsongrass [4, 21]: 0 | Ducksalad plant response rating ([5]; 62 g ai/ha, scale 0 to 100): 0 | Ducksalad plant response rating [5, 11]: 0 | Ducksalad plant response rating [5, 12]: 0 | Plant response rating, Ducksalad [5, 13]: 25 | Plant response rating, Velvetleaf [6, 14]: 0 | Plant response rating, Velvetleaf [6, 16]: 50 | Plant response rating, Velvetleaf [6, 17]: 55 | Velvetleaf plant response rating [6, 18]: 80 | Plant response rating, Velvetleaf [6, 19]: 50 | Plant response rating, Velvetleaf [6, 20]: 50 | Plant response rating, Bermudagrass [7, 22]: 40 | Plant response rating, Bermudagrass [7, 15]: 85 | Plant response rating, Bermudagrass [7, 16]: 100 | Bermudagrass plant response rating [7, 18]: 5 | Plant response rating, Bermudagrass [7, 19]: 5 | Bermudagrass plant response rating [7, 23]: 100 | Plant response rating, Bermudagrass [7, 20]: 0 | Plant response rating, Bermudagrass [7, 21]: 0 | Plant response rating, Soybean [8, 14]: 0 | Plant response rating, Soybean [8, 16]: 0 | Plant response rating, Soybean [8, 17]: 0 | Soybean plant response rating [8, 18]: 45 | Plant response rating, Soybean [8, 19]: 40 | Plant response rating, Soybean [8, 20]: 30 | Plant response rating, Soybean [8, 21]: 30 | Rice plant response rating ([9]; 62 g ai/ha, scale 0 to 100): 0 | Rice plant response rating [9, 11]: 0 | Rice plant response rating [9, 12]: 15 | Plant response rating, Rice [9, 13]: 20 | Plant response rating, Cocklebur [10, 14]: 0 | Plant response rating, Cocklebur [10, 15]: 0 | Plant response rating, Cocklebur [10, 16]: 0 | Plant response rating, Cocklebur [10, 19]: 80 | Cocklebur plant response rating [10, 24]: 5 | Plant response rating, Cocklebur [10, 20]: 5 | Plant response rating, Cocklebur [10, 21]: 0

CCn1nc(C2(C)CC2)cc1C(=O)Nc1cccc(C(=O)N2CC=CC2)c1 [Compound 304]
Sedge, Umbrella plant response rating ([1]; 62 g ai/ha, scale 0 to 100): 75 | Sedge, Umbrella plant response rating [1, 11]: 90 | Sedge, Umbrella plant response rating [1, 12]: 95 | Plant response rating, Sedge, Umbrella [1, 13]: 95 | Plant response rating, Corn [2, 14]: 0 | Plant response rating, Corn [2, 15]: 0 | Plant response rating, Corn [2, 16]: 15 | Plant response rating, Corn [2, 17]: 30 | Plant response rating, Goosegrass [3, 14]: 45 | Plant response rating, Goosegrass [3, 15]: 85 | Plant response rating, Goosegrass [3, 16]: 90 | Plant response rating, Goosegrass [3, 17]: 100 | Plant response rating, Johnsongrass [4, 14]: 0 | Plant response rating, Johnsongrass [4, 15]: 60 | Plant response rating, Johnsongrass [4, 16]: 70 | Plant response rating, Johnsongrass [4, 17]: 80 | Ducksalad plant response rating ([5]; 62 g ai/ha, scale 0 to 100): 65 | Ducksalad plant response rating [5, 11]: 85 | Ducksalad plant response rating [5, 12]: 95 | Plant response rating, Ducksalad [5, 13]: 95 | Plant response rating, Velvetleaf [6, 14]: 0 | Plant response rating, Velvetleaf [6, 17]: 60 | Plant response rating, Bermudagrass [7, 22]: 5 | Plant response rating, Bermudagrass [7, 15]: 70 | Plant response rating, Bermudagrass [7, 16]: 100 | Bermudagrass plant response rating [7, 23]: 100 | Plant response rating, Soybean [8, 14]: 0 | Plant response rating, Soybean [8, 16]: 20 | Plant response rating, Soybean [8, 17]: 20 | Rice plant response rating ([9]; 62 g ai/ha, scale 0 to 100): 45 | Rice plant response rating [9, 11]: 60 | Rice plant response rating [9, 12]: 70 | Plant response rating, Rice [9, 13]: 75 | Plant response rating, Cocklebur [10, 14]: 0 | Plant response rating, Cocklebur [10, 15]: 0 | Plant response rating, Cocklebur [10, 16]: 0 | Cocklebur plant response rating [10, 24]: 0

CCn1nc(C(C)(C)C)cc1C(=O)Nc1cccc(C(=O)OC)c1 [Compound 81]
Sedge, Umbrella plant response rating [1, 25]: 70 | Sedge, Umbrella plant response rating [1, 26]: 70 | Sedge, Umbrella plant response rating [1, 12]: 80 | Plant response rating, Sedge, Umbrella [1, 13]: 80 | Plant response rating, Corn [2, 19]: 40 | Plant response rating, Corn [2, 20]: 40 | Plant response rating, Corn [2, 21]: 40 | Plant response rating, Goosegrass [3, 19]: 10 | Plant response rating, Goosegrass [3, 20]: 5 | Plant response rating, Goosegrass [3, 21]: 0 | Plant response rating, Johnsongrass [4, 19]: 5 | Plant response rating, Johnsongrass [4, 20]: 0 | Plant response rating, Johnsongrass [4, 21]: 0 | Ducksalad plant response rating [5, 25]: 0 | Ducksalad plant response rating [5, 26]: 0 | Ducksalad plant response rating [5, 12]: 20 | Plant response rating, Ducksalad [5, 13]: 20 | Plant response rating, Velvetleaf [6, 19]: 60 | Plant response rating, Velvetleaf [6, 20]: 55 | Plant response rating, Velvetleaf [6, 21]: 55 | Bermudagrass plant response rating ([7]; Postemergence, 250 g ai/ha, scale 0 to 100): 20 | Plant response rating, Bermudagrass [7, 20]: 0 | Plant response rating, Bermudagrass [7, 27]: 0 | Plant response rating, Bermudagrass [7, 21]: 0 | Plant response rating, Soybean [8, 19]: 30 | Plant response rating, Soybean [8, 20]: 30 | Plant response rating, Soybean [8, 21]: 10 | Rice plant response rating [9, 25]: 20 | Rice plant response rating [9, 26]: 20 | Rice plant response rating [9, 12]: 30 | Plant response rating, Rice [9, 13]: 40 | Plant response rating, Cocklebur [10, 19]: 60 | Plant response rating, Cocklebur [10, 20]: 55 | Plant response rating, Cocklebur [10, 27]: 50 | Plant response rating, Cocklebur [10, 21]: 55
